Values joined by “and” are separate entries in the source; they are usually repeats but may differ in a detail not shown here. Equal values may be shown once.
Molecular target: T1, human TAS2R1 (Homo sapiens, UniProt Q9NYW7)
T1 construct: expressed in transfected cells; host or cells: HEK293T-Gα16gust44
T1 sequence (Q9NYW7 1-299): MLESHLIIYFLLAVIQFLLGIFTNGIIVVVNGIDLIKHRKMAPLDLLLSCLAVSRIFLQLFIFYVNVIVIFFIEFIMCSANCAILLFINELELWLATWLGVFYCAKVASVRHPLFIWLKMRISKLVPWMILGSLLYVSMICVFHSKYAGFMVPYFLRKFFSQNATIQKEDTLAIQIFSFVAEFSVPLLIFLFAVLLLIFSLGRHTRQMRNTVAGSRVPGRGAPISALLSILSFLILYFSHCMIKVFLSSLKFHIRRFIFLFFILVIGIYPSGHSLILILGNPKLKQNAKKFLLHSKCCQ
Assay: Calcium imaging assay (FLIPR), HEK293T-Gα16gust44 cells transfected with human TAS2R1
Assay type: cell-based
How it was run: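 Calcium responses via FLIPR in receptor-transfected HEK293T-Gα16gust44 cells (Fluo-4-AM, 2.5 mM probenecid), after mock-signal subtraction and normalization to baseline and buffer (ΔF/F). Threshold concentration is the lowest dose differing from mock cells at p < 0.01 (Student's t-test), from three biological replicates in duplicate.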

Question: How did the “Efficacy = maximal amplitude (ΔF/F)” value (TAS2R1, bile acids, mean) turn out when `C[C@H](CCC(=O)NCCS(=O)(=O)O)[C@H]1CC[C@H]2[C@@H]3CC[C@@H]4C[C@H](O)CC[C@]4(C)[C@H]3CC[C@]12C` [Taurolithocholic Acid, taurolithocholic acid] was run?
Answer: 0.1277

Question: And the “Efficacy (maximal amplitude ΔF/F), individual data points” value (TAS2R1, bile acids, single replicates, listed as TLCA)?
Answer: 0.1258 and 0.1227 and 0.1699 and 0.1221 and 0.09796

Question: What about the RLU (Time 0 s (second time grid)) of the same molecule?
Answer: 0 RLU

Question: What about the RLU (Time 2 s) of the same molecule?
Answer: -8.765 RLU

Question: What about the RLU (Time 4 s) of the same molecule?
Answer: 34.6882 RLU

Question: What about the RLU (Time 6 s) of the same molecule?
Answer: 11.8088 RLU

Question: And the RLU (Time 8 s)?
Answer: 18.099 RLU

Question: And the RLU (Time 12 s)?
Answer: 15.1496 RLU

Question: What about the RLU (Time 14 s) of the same molecule?
Answer: 13.1492 RLU

Question: And the RLU (Time 16 s)?
Answer: 0.9458 RLU

Question: What about the RLU (Time 18 s) of the same molecule?
Answer: 9.703 RLU

Question: And the RLU (Time 18.781 s)?
Answer: 5.165 RLU

Question: What about the RLU (Time 20.781 s) of the same molecule?
Answer: 27.2472 RLU

Question: And the RLU (Time 22.781 s)?
Answer: 1.644 RLU

Question: What about the RLU (Time 24.781 s) of the same molecule?
Answer: -21.8293 RLU

Question: What about the RLU (Time 26.781 s) of the same molecule?
Answer: 33.0454 RLU

Question: What about the RLU (Time 28.781 s) of the same molecule?
Answer: 106.888 RLU

Question: And the RLU (Time 30.781 s)?
Answer: 183.135 RLU

Question: What about the RLU (Time 32.781 s) of the same molecule?
Answer: 270.143 RLU

Question: And the RLU (Time 34.781 s)?
Answer: 337.182 RLU

Question: And the RLU (Time 36.781 s)?
Answer: 405.016 RLU

Question: And the RLU (Time 38.781 s)?
Answer: 448.367 RLU

Question: And the RLU (Time 40.781 s)?
Answer: 483.096 RLU

Question: And the RLU (Time 42.781 s)?
Answer: 511.157 RLU

Question: And the RLU (Time 44.781 s)?
Answer: 542.077 RLU

Question: What about the RLU (Time 46.781 s) of the same molecule?
Answer: 572.975 RLU

Question: And the RLU (Time 48.781 s)?
Answer: 599.496 RLU

Question: What about the RLU (Time 50.781 s) of the same molecule?
Answer: 624.238 RLU

Question: What about the RLU (Time 52.781 s) of the same molecule?
Answer: 642.403 RLU

Question: And the RLU (Time 54.781 s)?
Answer: 649.802 RLU

Question: And the RLU (Time 56.781 s)?
Answer: 680.566 RLU

Question: What about the RLU (Time 58.781 s) of the same molecule?
Answer: 693.048 RLU

Question: And the RLU (Time 60.781 s)?
Answer: 676.887 RLU

Question: And the RLU (Time 62.781 s)?
Answer: 735.967 RLU

Question: What about the RLU (Time 64.781 s) of the same molecule?
Answer: 726.535 RLU

Question: What about the RLU (Time 66.781 s) of the same molecule?
Answer: 712 RLU

Question: And the RLU (Time 68.781 s)?
Answer: 708.17 RLU

Question: And the RLU (Time 70.781 s)?
Answer: 740.519 RLU

Question: And the RLU (Time 72.781 s)?
Answer: 720.827 RLU

Question: And the RLU (Time 74.781 s)?
Answer: 715.629 RLU

Question: What about the RLU (Time 76.781 s) of the same molecule?
Answer: 740.295 RLU

Question: What about the RLU (Time 78.781 s) of the same molecule?
Answer: 736.469 RLU

Question: And the RLU (Time 80.781 s)?
Answer: 705.753 RLU

Question: What about the RLU (Time 82.781 s) of the same molecule?
Answer: 719.776 RLU

Question: And the RLU (Time 84.781 s)?
Answer: 729.602 RLU

Question: And the RLU (Time 86.781 s)?
Answer: 717.016 RLU

Question: And the RLU (Time 88.781 s)?
Answer: 708.528 RLU

Question: And the RLU (Time 90.781 s)?
Answer: 685.914 RLU

Question: And the RLU (Time 92.781 s)?
Answer: 709.593 RLU

Question: And the RLU (Time 94.781 s)?
Answer: 708.426 RLU

Question: And the RLU (Time 96.781 s)?
Answer: 665.125 RLU

Question: And the RLU (Time 98.781 s)?
Answer: 639.76 RLU

Question: And the RLU (Time 100.781 s)?
Answer: 661.017 RLU

Question: And the RLU (Time 102.781 s)?
Answer: 653.391 RLU

Question: What about the RLU (Time 104.781 s) of the same molecule?
Answer: 622.006 RLU

Question: What about the RLU (Time 106.781 s) of the same molecule?
Answer: 616.277 RLU

Question: What about the RLU (Time 108.781 s) of the same molecule?
Answer: 602.431 RLU

Question: What about the RLU (Time 110.781 s) of the same molecule?
Answer: 574.352 RLU

Question: And the RLU (Time 112.781 s)?
Answer: 593.769 RLU

Question: And the RLU (Time 114.781 s)?
Answer: 553.55 RLU

Question: What about the RLU (Time 116.781 s) of the same molecule?
Answer: 583.964 RLU

Question: What about the RLU (Time 118.781 s) of the same molecule?
Answer: 539.304 RLU

Question: And the RLU (Time 120.781 s)?
Answer: 524.165 RLU

Question: What about the RLU (Time 122.781 s) of the same molecule?
Answer: 518.27 RLU

Question: And the RLU (Time 124.781 s)?
Answer: 503.611 RLU

Question: And the RLU (Time 126.781 s)?
Answer: 474.132 RLU

Question: What about the RLU (Time 128.781 s) of the same molecule?
Answer: 435.021 RLU

Question: What about the RLU (Time 130.781 s) of the same molecule?
Answer: 439.84 RLU

Question: And the RLU (Time 132.781 s)?
Answer: 420.045 RLU

Question: And the RLU (Time 134.781 s)?
Answer: 393.577 RLU

Question: And the RLU (Time 136.781 s)?
Answer: 395.556 RLU

Question: What about the RLU (Time 137.547 s) of the same molecule?
Answer: 402.14 RLU

Question: And the RLU (Time 143.547 s)?
Answer: 371.698 RLU

Question: And the RLU (Time 149.547 s)?
Answer: 331.65 RLU

Question: What about the RLU (Time 155.547 s) of the same molecule?
Answer: 280.988 RLU

Question: And the RLU (Time 161.547 s)?
Answer: 237.537 RLU

Question: And the RLU (Time 167.547 s)?
Answer: 191.55 RLU

Question: What about the RLU (Time 173.547 s) of the same molecule?
Answer: 185.568 RLU

Question: What about the RLU (Time 179.547 s) of the same molecule?
Answer: 137.711 RLU

Question: What about the RLU (Time 185.547 s) of the same molecule?
Answer: 105.562 RLU

Question: And the RLU (Time 191.547 s)?
Answer: 24.299 RLU

Question: What about the RLU (Time 197.547 s) of the same molecule?
Answer: 1.672 RLU

Question: And the RLU (Time 203.547 s)?
Answer: -7.55 RLU

Question: And the RLU (Time 209.547 s)?
Answer: -39.8614 RLU

Question: What about the RLU (Time 215.547 s) of the same molecule?
Answer: -81.387 RLU

Question: What about the RLU (Time 221.547 s) of the same molecule?
Answer: -74.4232 RLU

Question: And the RLU (Time 227.547 s)?
Answer: -79.2952 RLU

Question: And the RLU (Time 233.547 s)?
Answer: -69.562 RLU

Question: And the RLU (Time 239.547 s)?
Answer: -81.6561 RLU

Question: What about the RLU (Time 245.547 s) of the same molecule?
Answer: -72.3962 RLU

Question: What about the RLU (Time 293.547 s) of the same molecule?
Answer: -154.558 RLU

Question: What about the RLU (Time 299.547 s) of the same molecule?
Answer: -170.989 RLU

Question: What about the RLU (calcium trace, sheet TAS2R1, Time 305.547 s) of the same molecule?
Answer: -184.97 RLU

Question: What about the RLU (calcium trace, sheet TAS2R1, Time 311.547 s) of the same molecule?
Answer: -208.123 RLU

Question: And the RLU (calcium trace, sheet TAS2R1, Time 317.547 s)?
Answer: -201.311 RLU

Question: And the RLU (calcium trace, sheet TAS2R1, Time 323.547 s)?
Answer: -236.998 RLU

Question: What about the RLU (calcium trace, sheet TAS2R1, Time 329.547 s) of the same molecule?
Answer: -230.646 RLU

Question: What about the RLU (calcium trace, sheet TAS2R1, Time 335.547 s) of the same molecule?
Answer: -241.48 RLU

Question: And the RLU (calcium trace, sheet TAS2R1, Time 341.547 s)?
Answer: -222.174 RLU

Question: And the RLU (calcium trace, sheet TAS2R1, Time 347.547 s)?
Answer: -215.316 RLU

Question: And the RLU (calcium trace, sheet TAS2R1, Time 353.547 s)?
Answer: -228.211 RLU

Question: And the RLU (calcium trace, sheet TAS2R1, Time 359.547 s)?
Answer: -233.286 RLU

Question: What about the EC50 (calculated where receptor saturation was reached) of the same molecule?
Answer: 1.9 µM

Question: And the “Activation threshold concentration TAS2R1” value (lowest concentration with significantly increased fluorescence vs empty vector (p < 0.01))?
Answer: 0.3 µM and 0.30 µM

Source: PMC10247784, “Physiological activation of human and mouse bitter taste receptors by bile acids” (Communications Biology, 2023)
